Results published in patent US7959954B2, “Pharmaceutical composition for treatment of diabetes and dyslipidemia” (Council of Scientific and Industrial Research, priority 2005, dated 2011).
Marks after values point to notes of the source that are not given here.

Tests used:
[1] = system: sucrose challenged Streptozotocin induced diabetic rats; experiment: STZ-s model, sucrose challenged low dosed Streptozotocin induced diabetic rats; assay type: in vivo, Male albino rats of Sprague Dawley strain; conditions: for STZ-s model % change 5 h / STZ-s model % change 24 h: dose 25 mg/kg
Procedure: [formula] […] [B] (ii) STZ-s Procedure
Male albino rats of Sprague Dawley strain of the body weight 160±20 g were selected for this study. Streptozotocin (Sigma, USA) was dissolved in 100 mM citrate buffer pH 4.5 and calculated amount of the fresh solution was injected to overnight fasted rats (45 mg./Kg.) intraperitonially. Blood was checked 48 hours later by glucosetrips and animals showing blood glucose values between 144 to 270 mg./dl. (8 to 15 mM) were included in the experiments and termed diabetic. The diabetic animals were divided into groups comprising 5 to 6 animals in each group. […] The animals of the control group were given an equal amount of 1.0% gum acacia. A sucrose load of the 2.5 g/Kg of the body weight was given after 30 minutes of the drug administration. After 30 minutes of the post sucrose load blood glucose level was again checked by glucostrips at 30, 60, 90, 120, 180, 240, 300 minutes and 24 hours respectively. […] The food but not the water was withheld from the cages during the experimentation. Comparing the AUC of experimental and control groups determined the percent of antihyperglycemic activity. Statistical comparison between groups was made by the Student's “t” test.

db/db mice [2] = experiment: Anti-dislipidemic activity (lipid profile) in db/db mice; assay type: in vivo, C57BL/KsBom-db mice; conditions: dose 10 mg/Kg
Source text: The db/db mouse is a well-characterized model of type-2 diabetes. The background for the db/db mouse is the C57BL/Ks strain. The major deficiency of the C57BL.Ks Bom-db mouse (db/db) is lack of a functional leptin receptor. This leads to defective leptin signaling and a complete lack of feedback from leptin. […] The db/db mouse develops NIDDM from around week 10. The disease is stable until week 20, where destruction of pancreatic β-cells can be recognized clinically as decreasing levels of plasma insulin and very severe […]. The db/db mouse has a maximal life span of 9-12 months. The advantage of using male mice for experimental purposes is that the fluctuations in plasma parameters are less than in females where the oestrogens cycle affects the clinical diabetes. The optimal age of db/db mice used for experiments will be from week-12 to 18 when they have developed NIDDM with diabetic dyslipidemia but still have functional β-cells in the pancreas. C57BL/KsBom-db mice 12-18 weeks, 40-50 g bred in the animal house of CDRI, Lucknow. 10 mice were housed in groups of (5 males and 5 females) were housed in groups of 5 individuals (same sex) in a room controlled for temperature (23±2.0° C.) and 12/12 hours light/dark cycle (light on 6.00AM.). Body weight was measured daily from day 1 to day 10. All animals had free access to fresh water and to normal chow except on the days of the post prandial protocol day 6 and during the overnight fast before the OGTT on day 10. The animals always had access to water during experimental periods. Blood glucose was checked every morning up till day 5. On day 6 post prandial protocol was employed, in this method blood glucose was checked at −0.5 h and 0 h. […] Blood glucose was measured at 0.0 min. post treatment, at this juncture glucose solution was given at a dose of 3 g./Kg. to all the groups including vehicle; the profile of blood glucose was checked at 30, 60, 90 and 120 minutes post glucose administration.

db/db mice [3] = experiment: db/db mice antihyperglycemic activity (day 6 post prandial, day 10 OGTT); assay type: in vivo, C57BL/KsBom-db mice
Source text: The db/db mouse is a well-characterized model of type-2 diabetes. The background for the db/db mouse is the C57BL/Ks strain. The major deficiency of the C57BL.Ks Bom-db mouse (db/db) is lack of a functional leptin receptor. This leads to defective leptin signaling and a complete lack of feedback from leptin. […] The db/db mouse develops NIDDM from around week 10. The disease is stable until week 20, where destruction of pancreatic β-cells can be recognized clinically as decreasing levels of plasma insulin and very severe […]. The db/db mouse has a maximal life span of 9-12 months. The advantage of using male mice for experimental purposes is that the fluctuations in plasma parameters are less than in females where the oestrogens cycle affects the clinical diabetes. The optimal age of db/db mice used for experiments will be from week-12 to 18 when they have developed NIDDM with diabetic dyslipidemia but still have functional β-cells in the pancreas. C57BL/KsBom-db mice 12-18 weeks, 40-50 g bred in the animal house of CDRI, Lucknow. 10 mice were housed in groups of (5 males and 5 females) were housed in groups of 5 individuals (same sex) in a room controlled for temperature (23±2.0° C.) and 12/12 hours light/dark cycle (light on 6.00AM.). Body weight was measured daily from day 1 to day 10. All animals had free access to fresh water and to normal chow except on the days of the post prandial protocol day 6 and during the overnight fast before the OGTT on day 10. The animals always had access to water during experimental periods. Blood glucose was checked every morning up till day 5. On day 6 post prandial protocol was employed, in this method blood glucose was checked at −0.5 h and 0 h. The test samples were given to the treatment group whereas vehicle received the only gum acacia (1.0%); the blood glucose was again checked at 1, 2, 3, 4 and 6 h posttest drug treatment. On day 8, blood was collected for serum insulin and lipid profile measurements and finally on day 10 an oral glucose tolerance test (OGTT) was performed after an overnight fasting. Blood glucose was measured at 0.0 min. post treatment, at this juncture glucose solution was given at a dose of 3 g./Kg. to all the groups including vehicle; the profile of blood glucose was checked at 30, 60, 90 and 120 minutes post glucose administration.
Table-5-a represents the antihyperglycemic activity profile of 50% Aq.-EtOH extract and chloroform soluble fraction of the aq.-ethanolic extract and the standard drug Roziglitazone in hyperglycemic and hyperinsulinemic db/db mice. The results of the antidiabetic evaluations of the epicarp extracts/fractions/compounds in GLM and STZ models are given in table-1

dislipidemic hamster = experiment: Antidyslipidemic activity in dislipidemic (high fat diet) hamster model;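 note: male golden Syrian hamsters on high fat diet for 10 days, oral treatment days 4–10, non-fasted plasma sampled on day 10, compared with vehicle-treated high fat diet controls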
Procedure: Test Models used for the Evaluation of the Antidyslipidemic Activity:
Male golden Syrian Hamsters weighing 120-130 g were divided into dyslipidemic and dislipidemic plus drug treated groups of the eight animals in each groups were used. Feeding with high fat diet (supplied by NOVO—NORDISK, Dennmark, Cat produced Dyslipidemia. No-99122211). Dislipidemic hamsters had free access to HFD and water ad-libitum. throughout the experiment for ten days. The test sample was fed orally at a dose of 250 mg./kg. from day-4 to day-10 (7 days) in the HFD hamsters. Normal hamsters fed with HFD and given drug vehicle only, served as control animals. Body weight of each animal and diet intake of each animal group was recorded daily to check the effect of the drug on food intake and body weight of the animals. At the end of the experiment i.e. on day 10th, the blood of non fasted animals were withdrawn in two sets of tubes in which one set contains 120 μl NaF (4.5 mg./ml) and after 15 min. in cold, plasma was separated. Biochemical analysis of plasma with out NaF was performed on the same day for Triglycerides (TG) total Cholesterol (TC) HDL-Cholesterol using enzymatic diagnostic kits. Similarly the plasma containing NaF Glucose was assayed for glucose, glycerol and free Fatty acids (FFA) on Synchron CX-5. Clinical System Beckmann Coulter Instrument.

STZ injected rats = experiment: STZ model, antihyperglycemic activity; assay type: in vivo, Sprague-Dauley [SD] strain male albino rats; conditions: dose 100 mg/kg
Procedure: Drug metformate was administered half an hour before glucose was given. […] Statistical significance was done by AUC-method. [B] (i) STZ-Model Procedure Sprague-Dauley [SD] strain male albino rats of body weight 160±20 g were taken for study. Animals in 3 cage were kept for 7 days under standard experimental conditions before the experiment. Animals were given standard rat-pellet diet and tap-water ad-libitum. Day ‘0’-Day before experiment, animals were kept for overnight starvation. […] USA] was injected intraperitoneally to all the starved animals at a dose of 60 mg/kg, dissolved in 100 m M citrate buffer, pH 4.5. Day ‘2’ rats remained as such in the same conditions. Food pellets were removed on the penultimate day at 5:00 P.M. in the evening and animals were kept on over night starvation. […] Blood was taken from tail of the rats by stab-techniques and the glucose level was estimated using “Advantage Glucometer” of Boehringer Mannheim Co, USA. […] Group-I was kept only for control [STZ-injection were given only]. Group II were treated with STZ+test samples. […] [formula] The extract/fraction/compounds found active were statistically analyzed to determine area under curve [AUC] by plotting the blood-glucose values against time. [B] (ii) STZ-s Procedure

CC[C@H](CC[C@@H](C)[C@H]1CC[C@H]2[C@@H]3CC=C4C[C@@H](O[C@@H]5O[C@H](CO)[C@@H](O)[C@H](O)[C@H]5O)CC[C@]4(C)[C@H]3CC[C@]12C)C(C)C [β-Sitosterol-β-D-glucoside]
% Activity in STZ-s model ([1]; dose 100 mg/Kg): +10.1%

CN(C)C(=N)N=C(N)N [Metformin, reference compound]
STZ-s model % change 5 h ([1]; 5 h): −23.6** %
STZ-s model % change 24 h ([1]; 24 h): −26.5** %
% Antihyperglycemic activity 5 h ([1]; dose 100 mg/Kg, 5 h): 23.6* ** %
% Antihyperglycemic activity 24 h ([1]; dose 100 mg/Kg, 24 h): 26.5* * * %

CN(CCOc1ccc(CC2SC(=O)NC2=O)cc1)c1ccccn1 (stereo not shown) [Roziglitazone]
Anti-dislipidemic activity CHOL (db/db mice [2]): −5.5
Anti-dislipidemic activity HDL-C (db/db mice [2]): +7.14
Anti-dislipidemic activity TG (db/db mice [2]): −16.0
antidiabetic effect in db/db mice (db/db mice [3]; 10 mg/Kg): same order of activities
% Antihyperglycemic activity Day 6 (db/db mice [3]; dose 3.0 mg/Kg, Day 6): 6.24* %
% Antihyperglycemic activity Day 10 (db/db mice [3]; dose 3.0 mg/Kg, Day 10): 48.5* ** %
Antihyperglycemic activity Day 6 (db/db mice [3]; dose 10 mg/Kg, Day 6): −13.8 **
Antihyperglycemic activity Day 10 (db/db mice [3]; dose 10 mg/Kg, Day 10): −27.4 ***

CCCCCCCCCCCCCCCC(=O)O [Palmitic acid]
% Activity in STZ-s model ([1]; dose 100 mg/Kg): −5.6%

Xyloccensin-E
CHOL (Cholesterol) (dislipidemic hamster; dose 10 mg/kg): −18%
FFA (Free Fatty Acid) (dislipidemic hamster; dose 10 mg/kg): −43* %
H/C (High density lipoprotein/cholesterol ratio) (dislipidemic hamster; dose 10 mg/kg): −10%
HDL (High Density Lipoprotein) (dislipidemic hamster; dose 10 mg/kg): −25%
TG (Triglycerides) (dislipidemic hamster; dose 10 mg/kg): −22%
STZ-s model % change 5 h ([1]; 5 h): −6.91%
STZ-s model % change 24 h ([1]; 24 h): −0.34%

Photogedunin
% Activity in STZ-s model ([1]; dose 100 mg/Kg): +30.5%

CC(=O)O[C@@H]1C[C@H]2C(C)(C)C(=O)C=C[C@]2(C)[C@H]2CC[C@@]3(C)[C@H](c4ccoc4)OC(=O)[C@H]4O[C@]43[C@@]21C [Gedunin]
In STZ model % lowering (STZ injected rats): 10.5%
In STZ model % lowering (STZ injected rats; listed as gedunin): promising activity
CHOL (Cholesterol) (dislipidemic hamster; dose 25 mg/kg): +14%
FFA (Free Fatty Acid) (dislipidemic hamster; dose 25 mg/kg): −36*** %
GLU (Glucose) (dislipidemic hamster; dose 25 mg/kg): −28*** %
GLY (Glycerol) (dislipidemic hamster; dose 25 mg/kg): −22%
H/C (High density lipoprotein/cholesterol ratio) (dislipidemic hamster; dose 25 mg/kg): +11%
HDL (High Density Lipoprotein) (dislipidemic hamster; dose 25 mg/kg): +27* %
TG (Triglycerides) (dislipidemic hamster; dose 25 mg/kg): −47*** %
activity in antidislipidemic hamster model (dislipidemic hamster; hamster, in vivo): active
activity in STZ-s model ([1]; rat, in vivo): active

CC[C@H](CC[C@@H](C)[C@H]1CC[C@H]2[C@@H]3CC=C4C[C@@H](O)CC[C@]4(C)[C@H]3CC[C@]12C)C(C)C [β-Sitosterol]
FFA (Free Fatty Acid) (dislipidemic hamster; dose 25 mg/kg): −38*** %
GLY (Glycerol) (dislipidemic hamster; dose 25 mg/kg): −14%
H/C (High density lipoprotein/cholesterol ratio) (dislipidemic hamster; dose 25 mg/kg): −7%
HDL (High Density Lipoprotein) (dislipidemic hamster; dose 25 mg/kg): −5%
TG (Triglycerides) (dislipidemic hamster; dose 25 mg/kg): −7%
STZ-s model % change 5 h ([1]; 5 h): Nil
STZ-s model % change 24 h ([1]; 24 h): Nil

Xyloccensin-I
FFA (Free Fatty Acid) (dislipidemic hamster; dose 25 mg/kg): −17%
GLY (Glycerol) (dislipidemic hamster; dose 25 mg/kg): −5%
H/C (High density lipoprotein/cholesterol ratio) (dislipidemic hamster; dose 25 mg/kg): −7%
HDL (High Density Lipoprotein) (dislipidemic hamster; dose 25 mg/kg): −5%
STZ-s model % change 5 h ([1]; 5 h): Nil
STZ-s model % change 24 h ([1]; 24 h): Nil

CC(C)OC(=O)C(C)(C)Oc1ccc(C(=O)c2ccc(Cl)cc2)cc1 [Fenofibrate, reference compound]
CHOL (Cholesterol) (dislipidemic hamster; dose 108.24 mg/kg (300 μmole)): −18* %
FFA (Free Fatty Acid) (dislipidemic hamster; dose 108.24 mg/kg (300 μmole)): −20* %
GLU (Glucose) (dislipidemic hamster; dose 108.24 mg/kg (300 μmole)): −22%
GLY (Glycerol) (dislipidemic hamster; dose 108.24 mg/kg (300 μmole)): −36** %
H/C (High density lipoprotein/cholesterol ratio) (dislipidemic hamster; dose 108.24 mg/kg (300 μmole)): +10%
TG (Triglycerides) (dislipidemic hamster; dose 108.24 mg/kg (300 μmole)): −42* %
